{"source": "PubChem BioAssay (NCI)", "test_in_all_cases": "NCI tumour cell line growth inhibition, 48 h", "key": {"M14 melanoma": {"tested_on": "M14 melanoma"}, "OVCAR-8 ovarian": {"tested_on": "OVCAR-8 ovarian"}, "HT29 colon": {"tested_on": "HT29 colon"}, "MOLT-4 leukemia": {"tested_on": "MOLT-4 leukemia"}, "UO-31 renal": {"tested_on": "UO-31 renal"}, "OVCAR-3 ovarian": {"tested_on": "OVCAR-3 ovarian"}, "SNB-75 CNS": {"tested_on": "SNB-75 CNS"}, "SK-MEL-2 melanoma": {"tested_on": "SK-MEL-2 melanoma"}, "NCI-H522 lung": {"tested_on": "NCI-H522 lung"}, "SR leukemia": {"tested_on": "SR leukemia"}, "NCI/ADR-RES ovarian": {"tested_on": "NCI/ADR-RES ovarian"}, "HOP-62 NSCLC": {"tested_on": "HOP-62 NSCLC"}, "A549 NSCLC": {"tested_on": "A549 NSCLC"}, "DU-145 prostate": {"tested_on": "DU-145 prostate"}, "CCRF-CEM leukemia": {"tested_on": "CCRF-CEM leukemia"}, "TK-10 renal": {"tested_on": "TK-10 renal"}, "EKVX NSCLC": {"tested_on": "EKVX NSCLC"}, "RXF 393 renal": {"tested_on": "RXF 393 renal"}, "LOX IMVI melanoma": {"tested_on": "LOX IMVI melanoma"}, "NCI-H23 lung": {"tested_on": "NCI-H23 lung"}, "NCI-H460 lung": {"tested_on": "NCI-H460 lung"}, "COLO 205 colon": {"tested_on": "COLO 205 colon"}, "MCF7 breast": {"tested_on": "MCF7 breast"}, "ACHN renal": {"tested_on": "ACHN renal"}, "SK-OV-3 ovarian": {"tested_on": "SK-OV-3 ovarian"}, "NCI-H226 lung": {"tested_on": "NCI-H226 lung"}, "KM12 colon": {"tested_on": "KM12 colon"}, "SNB-19 CNS": {"tested_on": "SNB-19 CNS"}, "HCT-15 colon": {"tested_on": "HCT-15 colon"}, "UACC-62 melanoma": {"tested_on": "UACC-62 melanoma"}, "HL-60(TB) leukemia": {"tested_on": "HL-60(TB) leukemia"}, "SN12C renal": {"tested_on": "SN12C renal"}, "SK-MEL-5 melanoma": {"tested_on": "SK-MEL-5 melanoma"}, "K-562 leukemia": {"tested_on": "K-562 leukemia"}, "IGROV1 ovarian": {"tested_on": "IGROV1 ovarian"}, "786-0 renal": {"tested_on": "786-0 renal"}, "PC-3 prostate": {"tested_on": "PC-3 prostate"}, "UACC-257 melanoma": {"tested_on": "UACC-257 melanoma"}, "SF-295 CNS": {"tested_on": "SF-295 CNS"}, "T-47D breast": {"tested_on": "T-47D breast"}, "HOP-92 NSCLC": {"tested_on": "HOP-92 NSCLC"}, "BT-549 breast": {"tested_on": "BT-549 breast"}, "SK-MEL-28 melanoma": {"tested_on": "SK-MEL-28 melanoma"}, "CAKI-1 renal": {"tested_on": "CAKI-1 renal"}, "SF-539 CNS": {"tested_on": "SF-539 CNS"}, "A498 renal": {"tested_on": "A498 renal"}, "RPMI-8226 leukemia": {"tested_on": "RPMI-8226 leukemia"}, "MDA-MB-435": {"tested_on": "MDA-MB-435"}, "SW-620 colon": {"tested_on": "SW-620 colon"}, "MALME-3M melanoma": {"tested_on": "MALME-3M melanoma"}, "U251 CNS": {"tested_on": "U251 CNS"}, "HCT-116 colon": {"tested_on": "HCT-116 colon"}, "MDA-MB-231 breast": {"tested_on": "MDA-MB-231 breast"}, "HS 578T breast": {"tested_on": "HS 578T breast"}, "OVCAR-5 ovarian": {"tested_on": "OVCAR-5 ovarian"}, "SF-268 CNS": {"tested_on": "SF-268 CNS"}}, "note": "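A five-concentration, 48-hour dose response in 96-well plates underlies each endpoint, interpolated linearly between surrounding concentrations. The concentration for full growth arrest is given as TGI.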"}
{"smiles": "Oc1ccc(SCc2cc(O)c(O)c(O)c2)cc1", "values": [{"measurement": "TGI", "setting": "M14 melanoma", "value": 33.1, "unit": "µM"}, {"measurement": "TGI", "setting": "OVCAR-8 ovarian", "value": 49.6, "unit": "µM"}, {"measurement": "TGI", "setting": "HT29 colon", "value": 48.1, "unit": "µM"}, {"measurement": "TGI", "setting": "MOLT-4 leukemia", "value": "> 100", "unit": "µM"}, {"measurement": "TGI", "setting": "UO-31 renal", "value": "> 100", "unit": "µM"}, {"measurement": "TGI", "setting": "OVCAR-3 ovarian", "value": "> 100", "unit": "µM"}, {"measurement": "TGI", "setting": "SNB-75 CNS", "value": "> 100", "unit": "µM"}, {"measurement": "TGI", "setting": "SK-MEL-2 melanoma", "value": "> 100", "unit": "µM"}, {"measurement": "TGI", "setting": "NCI-H522 lung", "value": 61.4, "unit": "µM"}, {"measurement": "TGI", "setting": "SR leukemia", "value": "> 100", "unit": "µM"}, {"measurement": "TGI", "setting": "NCI/ADR-RES ovarian", "value": 58.5, "unit": "µM"}, {"measurement": "TGI", "setting": "HOP-62 NSCLC", "value": 56.4, "unit": "µM"}, {"measurement": "TGI", "setting": "A549 NSCLC", "value": "> 100", "unit": "µM"}, {"measurement": "TGI", "setting": "DU-145 prostate", "value": "> 100", "unit": "µM"}, {"measurement": "TGI", "setting": "CCRF-CEM leukemia", "value": 74.4, "unit": "µM"}, {"measurement": "TGI", "setting": "TK-10 renal", "value": "> 100", "unit": "µM"}, {"measurement": "TGI", "setting": "EKVX NSCLC", "value": "> 100", "unit": "µM"}, {"measurement": "TGI", "setting": "RXF 393 renal", "value": "> 100", "unit": "µM"}, {"measurement": "TGI", "setting": "LOX IMVI melanoma", "value": "> 100", "unit": "µM"}, {"measurement": "TGI", "setting": "NCI-H23 lung", "value": "> 100", "unit": "µM"}, {"measurement": "TGI", "setting": "NCI-H460 lung", "value": 36.7, "unit": "µM"}, {"measurement": "TGI", "setting": "COLO 205 colon", "value": 36.9, "unit": "µM"}, {"measurement": "TGI", "setting": "MCF7 breast", "value": 38.4, "unit": "µM"}, {"measurement": "TGI", "setting": "ACHN renal", "value": "> 100", "unit": "µM"}, {"measurement": "TGI", "setting": "SK-OV-3 ovarian", "value": "> 100", "unit": "µM"}, {"measurement": "TGI", "setting": "NCI-H226 lung", "value": 52.1, "unit": "µM"}, {"measurement": "TGI", "setting": "KM12 colon", "value": 42.6, "unit": "µM"}, {"measurement": "TGI", "setting": "SNB-19 CNS", "value": "> 100", "unit": "µM"}, {"measurement": "TGI", "setting": "HCT-15 colon", "value": "> 100", "unit": "µM"}, {"measurement": "TGI", "setting": "UACC-62 melanoma", "value": 41.4, "unit": "µM"}, {"measurement": "TGI", "setting": "HL-60(TB) leukemia", "value": "> 100", "unit": "µM"}, {"measurement": "TGI", "setting": "SN12C renal", "value": 74.9, "unit": "µM"}, {"measurement": "TGI", "setting": "SK-MEL-5 melanoma", "value": 40.7, "unit": "µM"}, {"measurement": "TGI", "setting": "K-562 leukemia", "value": "> 100", "unit": "µM"}, {"measurement": "TGI", "setting": "IGROV1 ovarian", "value": 57.8, "unit": "µM"}, {"measurement": "TGI", "setting": "786-0 renal", "value": "> 100", "unit": "µM"}, {"measurement": "TGI", "setting": "PC-3 prostate", "value": "> 100", "unit": "µM"}, {"measurement": "TGI", "setting": "UACC-257 melanoma", "value": "> 100", "unit": "µM"}, {"measurement": "TGI", "setting": "SF-295 CNS", "value": 29.8, "unit": "µM"}, {"measurement": "TGI", "setting": "T-47D breast", "value": "> 100", "unit": "µM"}, {"measurement": "TGI", "setting": "HOP-92 NSCLC", "value": "> 100", "unit": "µM"}, {"measurement": "TGI", "setting": "BT-549 breast", "value": 85.9, "unit": "µM"}, {"measurement": "TGI", "setting": "SK-MEL-28 melanoma", "value": "> 100", "unit": "µM"}, {"measurement": "TGI", "setting": "CAKI-1 renal", "value": "> 100", "unit": "µM"}, {"measurement": "TGI", "setting": "SF-539 CNS", "value": "> 100", "unit": "µM"}, {"measurement": "TGI", "setting": "A498 renal", "value": "> 100", "unit": "µM"}, {"measurement": "TGI", "setting": "RPMI-8226 leukemia", "value": 78.6, "unit": "µM"}, {"measurement": "TGI", "setting": "MDA-MB-435", "value": "> 100", "unit": "µM"}, {"measurement": "TGI", "setting": "SW-620 colon", "value": "> 100", "unit": "µM"}, {"measurement": "TGI", "setting": "MALME-3M melanoma", "value": "> 100", "unit": "µM"}, {"measurement": "TGI", "setting": "U251 CNS", "value": "> 100", "unit": "µM"}, {"measurement": "TGI", "setting": "HCT-116 colon", "value": 34.2, "unit": "µM"}, {"measurement": "TGI", "setting": "MDA-MB-231 breast", "value": "> 100", "unit": "µM"}, {"measurement": "TGI", "setting": "HS 578T breast", "value": "> 100", "unit": "µM"}, {"measurement": "TGI", "setting": "OVCAR-5 ovarian", "value": 50.7, "unit": "µM"}, {"measurement": "TGI", "setting": "SF-268 CNS", "value": "> 100", "unit": "µM"}]}
